One data set addresses hA1AR (Homo sapiens (Human), UniProt P30542). The data set can be described thus: Binding affinities for Adenosine receptors (hA1AR). The following applies: CHO cells stably expressing recombinant hA1AR.
The target in a further data set is hA3AR (Homo sapiens (Human), UniProt P0DMS8). The data set can be described thus: Binding affinities for Adenosine receptors (hA3AR). The following applies: CHO cells stably expressing recombinant hA3AR.
Another data set concerns the target hA2AAR (Homo sapiens (Human), UniProt P29274). Description: Binding affinities for Adenosine receptors (hA2AAR). The following applies: HEK 293 cells stably expressing hA2AAR.
Data set [1] is described as follows: Stability of prodrugs in mouse plasma after 2 hours of treatment. Type of data set: in vitro ADME. The following applies: 37° C.

Some results are limits rather than exact numbers.

Sequence of hA1AR (P30542 whole entry): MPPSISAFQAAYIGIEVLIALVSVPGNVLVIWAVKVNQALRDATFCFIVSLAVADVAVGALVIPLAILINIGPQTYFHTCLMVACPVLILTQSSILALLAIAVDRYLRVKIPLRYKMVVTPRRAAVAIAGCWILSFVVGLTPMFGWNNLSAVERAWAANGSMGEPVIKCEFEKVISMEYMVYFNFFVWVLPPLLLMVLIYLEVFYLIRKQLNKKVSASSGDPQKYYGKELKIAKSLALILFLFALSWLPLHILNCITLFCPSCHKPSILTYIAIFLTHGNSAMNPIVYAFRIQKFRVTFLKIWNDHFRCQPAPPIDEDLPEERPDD
Sequence of hA3AR (P0DMS8 whole entry): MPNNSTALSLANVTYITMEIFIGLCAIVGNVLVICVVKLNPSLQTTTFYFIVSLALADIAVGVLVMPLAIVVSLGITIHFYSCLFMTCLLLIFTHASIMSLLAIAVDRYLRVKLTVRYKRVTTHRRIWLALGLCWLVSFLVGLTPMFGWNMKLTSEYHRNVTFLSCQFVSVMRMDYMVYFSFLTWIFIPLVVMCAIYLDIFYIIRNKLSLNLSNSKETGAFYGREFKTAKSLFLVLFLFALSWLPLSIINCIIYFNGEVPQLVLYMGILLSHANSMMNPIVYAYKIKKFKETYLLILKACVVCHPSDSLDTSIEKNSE
Sequence of hA2AAR (P29274 whole entry): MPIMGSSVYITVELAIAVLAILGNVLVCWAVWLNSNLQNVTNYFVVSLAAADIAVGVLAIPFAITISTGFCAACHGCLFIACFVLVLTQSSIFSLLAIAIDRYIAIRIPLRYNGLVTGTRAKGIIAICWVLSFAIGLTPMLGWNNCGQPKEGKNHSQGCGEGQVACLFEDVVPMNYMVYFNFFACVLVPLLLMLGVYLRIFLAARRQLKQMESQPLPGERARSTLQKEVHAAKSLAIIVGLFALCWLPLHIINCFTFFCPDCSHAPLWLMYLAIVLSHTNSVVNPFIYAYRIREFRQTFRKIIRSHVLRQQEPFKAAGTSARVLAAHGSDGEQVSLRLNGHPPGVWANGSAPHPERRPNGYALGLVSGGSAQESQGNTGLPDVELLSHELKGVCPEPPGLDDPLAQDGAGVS

A word on the Ki: it is a dissociation constant, usually derived from enzyme kinetics or from competition with a known ligand. As for `OC[C@H]1O[C@@H](n2cnc3c(NC(C4CCC4)C4CCC4)nc(Cl)nc32)[C@@H](O)C1O` (some centres unmarked) [Compound T14.3], the inhibitory constant (Ki) at hA1AR was over 10 µM; on hA3AR, under 1 µM; on hA2AAR, 1 to 10 µM.

In the case of `C[C@@H]1CC(n2cnc3c(NC4C5(CC5)C45CC5)nc(Cl)nc32)C(O)C1O` (some centres unmarked) [Compound T13.2], the Ki is under 1 µM on hA1AR, over 10 µM at hA3AR and 1 to 10 µM on hA2AAR.

In the case of `C[C@@H]1CC(n2cnc3c(NC(C4CC4)C4CC4)nc(Cl)nc32)C(O)C1O` (some centres unmarked) [Compound T13.1], the Ki was under 1 µM at hA1AR, 1 to 10 µM on hA3AR and over 10 µM on hA2AAR.

With `OC[C@H]1O[C@@H](n2cnc3c(NC4C5(CC5)C45CC5)nc(Cl)nc32)[C@@H](O)C1O` (some centres unmarked) [Compound T14.2], the inhibition constant (Ki) at hA1AR is over 10 µM; on hA3AR it was over 10 µM; at hA2AAR, 1 to 10 µM.

As for `CNC(=O)[C@@]12C[C@@H]1[C@@H](n1cnc3c(NCc4cccc(Cl)c4)nc(C#Cc4ccc(F)c(F)c4)nc31)[C@@H]1OC3(CCN(C)CC3)O[C@@H]12` [Compound T9.8, (3aR,3bS,4aS,5R,5aS)-5-(6-((3-chlorobenzyl)amino)-2-((3,4-difluorophenyl)ethynyl)-9H-purin-9-yl)-N,1′-dimethyltetrahydrospiro[cyclopropa[3,4]cyclopenta[1,2-d][1,3]dioxole-2,4′-piperidine]-3b(3aH)-carboxamide], the “Parent prodrug remained after 2 hours” value in data set [1] was 17%.

For `CNC(=O)[C@@]12C[C@@H]1[C@@H](n1cnc3c(NCc4cccc(Cl)c4)nc(C#Cc4ccc(F)c(F)c4)nc31)[C@H](OC(=O)[C@@H](N)C(C)C)[C@@H]2OC(=O)[C@@H](N)C(C)C` [Compound T8.1, (1S,2R,3S,4R,5S)-4-(6-((3-chlorobenzyl)amino)-2-((3,4-difluorophenyl)ethynyl)-9H-purin-9-yl)-1-(methylcarbamoyl)bicyclo[3.1.0]hexane-2,3-diyl (2S,2'S)-bis(2-amino-3-methylbutanoate)], in data set [1], the “Parent prodrug remained after 2 hours” value was 9%.

Turning to `C[C@@H]1CC(n2cnc3c(NC4C5(CC5)C45CC5)ncnc32)C(O)C1O` (some centres unmarked) [Compound T13.5], the Ki on hA1AR, on hA3AR and on hA2AAR was over 10 µM each time.

Turning to `CC(C)[C@H](N)C(=O)OC1C(OC(=O)[C@@H](N)C(C)C)[C@@H]2C[C@@H]2C1n1cnc2c(NC(C3CC3)C3CC3)nc(Cl)nc21.Cl.Cl` (stereo partly drawn) [Compound T1.1, (1R,5S)-4-(2-chloro-6-((dicyclopropylmethyl)amino)-9H-purin-9-yl)bicyclo[3.1.0]hexane-2,3-diyl (2S,2'S)-bis(2-amino-3-methylbutanoate), dihydrochloride salt], the “Parent prodrug remained after 2 hours” value in data set [1] was found to be 11%.

For the molecule `C[C@@H]1CC(n2cnc3c(NC(C4CCC4)C4CCC4)nc(Cl)nc32)C(O)C1O` (some centres unmarked) [Compound T13.3], the inhibition constant (Ki) is under 1 µM at hA1AR, over 10 µM at hA3AR and over 10 µM at hA2AAR.

Turning to `OC[C@H]1O[C@@H](n2cnc3c(NC4C5(CC5)C45CC5)ncnc32)[C@@H](O)C1O` (some centres unmarked) [Compound T14.5], the Ki on hA1AR is 1 to 10 µM; on hA3AR, over 10 µM; at hA2AAR it was over 10 µM.

`CC(C)[C@H](N)C(=O)OC[C@@]12C[C@@H]1[C@@H](n1cnc3c(NC(C4CC4)C4CC4)nc(Cl)nc31)[C@H](O)[C@@H]2O` [Compound T4.1, ((1R,2R,3S,4R,5S)-4-(2-chloro-6-((dicyclopropylmethyl)amino)-9H-purin-9-yl)-2,3-dihydroxybicyclo[3.1.0]hexan-1-yl)methyl L-valinate]: in data set [1], the “Parent prodrug remained after 2 hours” value stood at 21%.

`C[C@@H]1CC(n2cnc3c(NC(C4CC4)C4CC4)ncnc32)C(O)C1O` (some centres unmarked) [Compound T13.4]: the Ki is 1 to 10 µM at hA1AR, over 10 µM at hA3AR and 1 to 10 µM at hA2AAR.

As for `OC[C@H]1O[C@@H](n2cnc3c(NC(C4CC4)C4CC4)nc(Cl)nc32)[C@@H](O)C1O` (some centres unmarked) [Compound T14.1], the Ki at hA1AR was 1 to 10 µM; at hA3AR it was over 10 µM; at hA2AAR, 1 to 10 µM.

With `C[C@@H]1CC(n2cnc3c(NC(C4CCC4)C4CCC4)ncnc32)C(O)C1O` (some centres unmarked) [Compound T13.6], the Ki on hA1AR was 1 to 10 µM; on hA3AR, over 10 µM; at hA2AAR it was 1 to 10 µM.

Turning to `OC[C@H]1O[C@@H](n2cnc3c(NC(C4CC4)C4CC4)ncnc32)[C@@H](O)C1O` (some centres unmarked) [Compound T14.4], the Ki on hA1AR was over 10 µM; on hA3AR it was 1 to 10 µM; on hA2AAR, 1 to 10 µM.

Take `OC[C@H]1O[C@@H](n2cnc3c(NC(C4CCC4)C4CCC4)ncnc32)[C@@H](O)C1O` (some centres unmarked) [Compound T14.6]: the Ki at hA1AR, at hA3AR and on hA2AAR was 1 to 10 µM each time.

With `CC(C)[C@H](N)C(=O)N(c1nc(Cl)nc2c1ncn2[C@H]1[C@H](O)[C@H](O)[C@@H]2C[C@@H]21)C(C1CC1)C1CC1` [Compound T3.1, (S)-2-amino-N-(2-chloro-9-((1S,2R,3S,4R,5R)-3,4-dihydroxybicyclo[3.1.0]hexan-2-yl)-9H-purin-6-yl)-N-(dicyclopropylmethyl)-3-methylbutanamide], the “Parent prodrug remained after 2 hours” value in data set [1] was found to be 14%.
